Test system: Collagen Type I Synthesis in Fibroblast Cell Cultures
Test: Collagen stimulation by ELISA: stimulation of collagen type I synthesis in fibroblast cell cultures
Assay type: cell-based
Conditions: human skin fibroblasts, 72 h incubation
Method: Type I collagen of in-vitro cultured skin fibroblasts was detected with an ELISA (Enzyme-Linked Immunosorbent Assay). The increase in the collagen production of the cells was quantified in the presence of the peptidic actives by using this method. Human skin fibroblasts were isolated from foreskin and bred in culture medium. After 72 h of incubation with the corresponding peptides (actives) the quantitative determination was performed using an antibody specific for collagen I. [table] The 1st AB (MAB1340; Chemicon) and the 2nd AB (31430; Socochim S.A.) are diluted 1/500 with AB dilution solution. The fibroblasts are incubated until confluent at a density of approx. 5000 cells per well in 96 well-plates in culture medium (37° C./5% CO2) for 3 days. The medium is replaced with test medium with three different concentrations of test substance in triplicate. The following controls are tested on each plate: [table] After incubation of the plates for further 72 hours, the precipitated collagen I is detected and quantified according to the following protocol: • discard medium and wash with 200 μl/well of PBS • fix with 100 μl/well of methanol for 15 min at RT/shaker 600 rpm • discard methanol and block with 200 μl/well of milk solution for 30 min at RT/shaker 600 rpm • discard milk solution and incubate with 100 μl/well of the 1st AB dilution for 2 h at RT/shaker 600 rpm • discard 1st AB dilution and wash 3× with 200 μl/well of washing buffer • incubate with 100 μl/well of the 2nd AB dilution for 3 h at RT/shaker 600 rpm • discard 2nd AB dilution; wash 3× with 200 μl/well of washing buffer and 1× with 100 μl/well of PBS • add 100 μl/well of substrate solution for 20 min at RT/shaker 600 rpm • stop the reaction with 50 μl/well of H2SO4 (2M) and measure at 492 nm.

Substance | % Stimulation (Conc. 25 µmol/L) [%] | % Stimulation (Conc. 50 µmol/L) [%] | further results
Elaidoyl-Lys-Phe-Lys-OH *2AcOH [Reference compound A, reference compound] | – | – | % Stimulation (Conc. 0.01 µmol/L): 23%; % Stimulation (Conc. 20.0 µmol/L): 43%
Elaidoyl-Lys-Thr-Lys-OH*2TFA [Example 4] | 104 | – | –
H-Lys-Thr-Lys-OH*3TFA [Example 5] | – | 35 | –
H-Lys-Val-Lys-NH-Cetyl*3TFA [Example 7] | – | – | % Stimulation (Conc. 100 µmol/L): 61%
H-Lys-Val-Lys-O-Octyl*3TFA [Example 8] | 31 | – | –
Palm-Lys-Val-Lys-OH *2AcOH [No 4] | – | 48 | –
